According to US7001611B2, “Compositions normalizing circadian rhythm” (Suntory Limited, priority 2000, dated 2006):
Entries after “also recorded” stand apart in the source; their conditions may differ.

How the values were obtained:
[1] = test system: lipid peroxides in the brain; conditions: dose 1/100 the dose of α-tocopherol; Nishigaki et al. 1994; cited from earlier work
Wistar rats = assay: Circadian rhythm measuring method: amount of daily (spontaneous) movements of rats counted with an infrared sensor under a 12-hour light / 12-hour dark cycle; assay type: in vivo, rat; conditions: for ratio of activity in the light period to the total amount of movements (averages): Example 2, vs control group, astaxanthin diet, melatonin water (about 1 mg/day) or both, FIG. 5; for enhancive effect on the circadian rhythm normalizing action of melatonin: Example 3
Excerpt: To search for a substance having the action of normalizing the circadian rhythm, the inventors of the present invention conducted studies on various substances with the use of a circadian rhythm measuring method, with the amount of spontaneous movement of rats as an indicator, in an environment controlled to have a 12-hour light period and a 12-hour dark period. As a result, the inventors have clarified that astaxanthin, which is one of carotenoids, and/or its ester has a circadian rhythm normalizing action. […] These findings led them to accomplish the present invention. The influence of astaxanthin on daily movements was investigated in rats. Rats have the habit of resting (sleeping) mainly in the light period, and acting in the dark period. The circadian rhythm of rats was investigated by measuring the amount of daily movements continuously, and examining changes over time in the amounts of movements in the light period and the dark period. Four-week-old male Wistar rats (purchased from Nippon […]) were preliminarily reared for one week, and subjected to experiments at the age of 5 weeks. The rats were randomly divided into two groups (5 to 6 rats/group), and one of the groups was used as a control diet (low tocopherol) group, while the other group was used as an astaxanthin diet group, each group receiving the designated diet for 4 weeks. The animals were reared in animal cages kept at room temperature of 23.5±1° C. and a humidity of 55±5%, and the feed and water were provided ad libitum. Astaxanthin used was astaxanthin extracted from […] purified (an oil containing 15% of astaxanthin as a free compound; a product of Itano Refrigerating Co.). The rats were individually reared in a box equipped with an infrared sensor, and the amount of movements was counted with the infrared sensor. That is, each time the animal passed the infrared sensor, the passage was taken as one count. The counts taken were accumulated, and expressed as the amount of movements (counts). Statistical treatment was performed using ANOVA and student t-test. A period of 1 week after start of rearing with the experimental diet was set as a tuning period in which the animal was tuned to a 12-hour dark period and a 12-hour light period. Then, from the 2nd week, the amount of daily movements was continuously measured for 3 weeks. The total amount of movements, and the ratio of movements in the light period to the total amount of movements (i.e., the amount of movements in the light period/the total amount of movements×100 (%)) were calculated every day. […] The averages of the ratio (%) of movements in the light period were compared in both groups (FIG. 3). […] Four-week-old male Wistar rats (purchased from Nippon […]) were preliminarily reared for one week, and subjected to experiments at the age of 5 weeks. The rats were randomly divided into two groups (10 to 11 rats/group), and the two groups were given a control diet (low tocopherol diet) and an astaxanthin diet (Table 1), respectively. Each group was further divided into two groups (5 to 6 rats/group), which received distilled water and melatonin water, respectively, for 4 weeks. The animals were reared in animal cages kept at room temperature of 23.5±1° C. and a humidity of 55±5%, and the feed and water were provided ad libitum. Melatonin was dissolved in water at a concentration of 0.5 mg/100 ml, and the solution was given ad lib, as drinking water. The intake of melatonin, calculated from the amount of water taken by rats, was about 1 mg/day. After start of rearing with the experimental diet, a tuning period of 1 week was provided. Then, the amount of movements of rats was measured as in Example 1 for 3 weeks to look into changes in the circadian rhythm. No differences were noted among the averages of the total amount of movements in the respective groups (FIG. 4). […]

[2] = Yamashita 1992; cited from earlier work
[3] = Example 4, tocopherol-deficient basic feed, FIG. 9

| Compound | increases in lipid peroxides in the brain caused by irradiation with 60Co [1] | total amount of movements (day-to-day changes) (Wistar rats; Example 1, astaxanthin diet (0.3 g/kg of oil containing 15% astaxanthin) vs control low tocopherol diet, 3 weeks, FIG. 1) | average of the ratio (%) of movements in the light period (Wistar rats; Example 1, astaxanthin diet group vs control, FIG. 3) | ratio of movements in the light period to the total amount of movements (day-to-day changes) (Wistar rats; Example 1, astaxanthin diet vs control low tocopherol diet, 3 weeks, FIG. 2) | ratio of activity in the light period to the total amount of movements (averages) (Wistar rats) | enhancive effect on the circadian rhythm normalizing action of melatonin (Wistar rats; 0.0045% astaxanthin diet with melatonin water, FIG. 8) | total amount of movements (Wistar rats; Example 4, maximum dose of 1.5 g/kg diet, tocopherol-deficient basic feed, FIG. 10) | doses at which the decrease of the ratio of activity in the light period was significant (Wistar rats; [3]) | minimum dose at which the ratio of activity in the light period decreased (Wistar rats; [3]) | ratio of activity in the light period to the total amount of movements (dose dependency) (Wistar rats; Example 4, tocopherol-deficient basic feed, astaxanthin diets 0.15, 0.3, 0.6, 1.5 g/kg, FIG. 9) | antioxidant action compared with α-tocopherol [2] | enhancive effect on the circadian rhythm normalizing action of melatonin (Wistar rats; 0.001% tocopherol diet with melatonin water, FIG. 6) | enhancive effect on the circadian rhythm normalizing action of melatonin (Wistar rats; 0.005% tocopherol diet with melatonin water, FIG. 7) | enhancive effect on the circadian rhythm normalizing action of melatonin (Wistar rats; 0.005% tocopherol diet with melatonin water, FIG. 7, listed as tocopherol) |
| --- | --- | --- | --- | --- | --- | --- | --- | --- | --- | --- | --- | --- | --- | --- |
| CC1=C(/C=C/C(C)=C/C=C/C(C)=C/C=C/C=C(C)/C=C/C=C(C)/C=C/C2=C(C)C(=O)[C@@H](O)CC2(C)C)C(C)(C)C[C@H](O)C1=O [Astaxanthin, astaxanthin] | can suppress increases in lipid peroxides in the brain | did not affect the total amount of movements | significant decrease in the ratio of movements in the light period | lowered the ratio of movements in the light period | tendency toward a decrease in the ratio of activity in the light period | enhance the circadian rhythm normalizing action of melatonin significantly; also recorded: more potent effect of enhancing the circadian rhythm normalizing action of melatonin than does α-tocopherol | tended to increase | ≥ 0.3 g/kg diet | 0.15 g/kg diet | decreased in an astaxanthin concentration-dependent manner | more potent than that of α-tocopherol |  |  |  |
| COc1ccc2[nH]cc(CCNC(C)=O)c2c1 [melatonin, reference compound] |  |  |  |  | tendency toward a decrease in the ratio of activity in the light period |  |  |  |  |  |  |  |  |  |
| Cc1c(C)c2c(c(C)c1O)CC[C@@](C)(CCC[C@H](C)CCC[C@H](C)CCCC(C)C)O2 [α-tocopherol, reference compound] |  |  |  |  |  |  |  |  |  |  |  | no effect of enhancing the circadian rhythm normalizing action of melatonin | no effect of enhancing the circadian rhythm normalizing action of melatonin | slight enhancive effect |
